In ChEMBL document CHEMBL5137037, “Phage Display Selected Cyclic Peptide Inhibitors of Kallikrein-Related Peptidases 5 and 7 and Their In Vivo Delivery to the Skin” (J Med Chem, 2022):
Numbered stars: 1 amine (or outer) side, 2 acyl side, 3 side chain; on linkers, the order of the positions; unused ones are H or OH. Bridge positions count the residues as written; N and C are the ends. Square brackets hold non-standard residues; d marks the D form. Peptide text beside a SMILES is read from it. I, II: the chains in the order shown. * marks the point of attachment. X1 = O=C(O)c1cc(C(=O)*)ccc1-c1c2ccc(=O)cc-2oc2cc(O)ccc12; X3 = O=C(C[C@H](CCO)C(=O)[*:2])[C@H](Cc1ccc(O)cc1)N[*:1]; Palmitoyl = CCCCCCCCCCCCCCCC(=O)*; CH2COCH2 = O=C(C[*:1])C[*:2]; hSer = N[C@@H](CCO)C(=O)O; AEEA = NCCOCCOCC(=O)O

Experiments:
[1] = Stability of the compound in human plasma assessed as half life […] by LC-MS analysis; format: ADME, cell-free
Kallikrein-5 = molecular target: T1, Kallikrein-5 (Homo sapiens, UniProt Q9Y337); assay: Inhibition of C-terminal poly-His-tagged human recombinant KLK5 (30 to 293 residues) transfected in CHO cells assessed as inhibition constant using Boc-VPR-AMC as fluorogenic substrate incubated for 30 mins by fluorescence plate reader assay; format: cell-based
T1 sequence (Q9Y337 whole entry): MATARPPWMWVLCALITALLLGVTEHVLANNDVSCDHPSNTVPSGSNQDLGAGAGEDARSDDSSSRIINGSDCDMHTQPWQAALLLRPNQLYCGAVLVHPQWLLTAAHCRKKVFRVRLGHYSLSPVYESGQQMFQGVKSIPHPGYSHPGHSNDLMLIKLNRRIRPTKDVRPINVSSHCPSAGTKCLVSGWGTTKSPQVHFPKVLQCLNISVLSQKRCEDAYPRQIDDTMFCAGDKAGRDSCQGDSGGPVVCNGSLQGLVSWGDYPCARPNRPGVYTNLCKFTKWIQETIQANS

Albumin [2] = molecular target: Albumin (Homo sapiens, UniProt P02768); assay: Binding affinity to human serum albumin by fluorescence polarization assay
Albumin (Homo sapiens, UniProt P02768), sequence (P02768 whole entry): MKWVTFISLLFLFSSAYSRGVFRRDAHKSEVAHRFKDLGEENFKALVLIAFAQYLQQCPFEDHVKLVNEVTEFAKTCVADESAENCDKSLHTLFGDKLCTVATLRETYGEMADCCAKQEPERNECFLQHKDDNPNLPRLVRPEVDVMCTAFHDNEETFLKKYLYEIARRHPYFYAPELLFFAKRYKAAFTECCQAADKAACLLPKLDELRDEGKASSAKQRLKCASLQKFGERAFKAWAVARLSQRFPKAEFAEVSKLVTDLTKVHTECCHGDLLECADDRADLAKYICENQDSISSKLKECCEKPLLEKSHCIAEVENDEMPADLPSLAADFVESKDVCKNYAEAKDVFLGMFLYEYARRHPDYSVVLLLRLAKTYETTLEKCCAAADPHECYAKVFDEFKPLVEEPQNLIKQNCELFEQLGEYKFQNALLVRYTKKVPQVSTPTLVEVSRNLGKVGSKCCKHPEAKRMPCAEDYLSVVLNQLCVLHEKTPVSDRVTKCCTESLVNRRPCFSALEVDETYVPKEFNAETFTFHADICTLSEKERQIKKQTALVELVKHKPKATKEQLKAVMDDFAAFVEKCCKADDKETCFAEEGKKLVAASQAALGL

[3] = Plasma concentration in C57BL/6J mouse at 6.2 mg/kg, ip measured upto 24 hrs by RP-HPLC analysis; format: ADME, organism-based
[4] = Drug degradation in C57BL/6J mouse at 6.2 mg/kg, iv measured at 21 to 22 mins by RP-HPLC analysis; format: ADME, organism-based; details: in vivo, time 21-22 min
[5] = Half life in C57BL/6J mouse at 6.2 mg/kg, iv by RP-HPLC analysis; format: ADME, organism-based; details: in vivo
Kallikrein-7 [6] = molecular target: Kallikrein-7 (Homo sapiens, UniProt P49862); assay: Inhibition of C-terminal poly-His-tagged human recombinant KLK7 (30 to 253 residues) transfected in CHO cells assessed as inhibition constant using KHLY-pNA as fluorogenic substrate incubated for 30 mins by fluorescence plate reader assay; format: cell-based
Kallikrein-7 (Homo sapiens, UniProt P49862), sequence (P49862 whole entry, the tested form may be a part): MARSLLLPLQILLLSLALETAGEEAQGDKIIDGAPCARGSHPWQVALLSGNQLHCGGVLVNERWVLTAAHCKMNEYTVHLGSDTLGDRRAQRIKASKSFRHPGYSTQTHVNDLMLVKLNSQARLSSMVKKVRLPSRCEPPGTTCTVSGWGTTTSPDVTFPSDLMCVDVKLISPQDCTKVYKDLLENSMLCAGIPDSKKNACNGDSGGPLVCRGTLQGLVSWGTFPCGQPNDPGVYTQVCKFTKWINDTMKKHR

Albumin [7] = molecular target: Albumin (Mus musculus, UniProt P07724); assay: Binding affinity to mouse serum albumin by fluorescence polarization assay
Albumin (Mus musculus, UniProt P07724), sequence (P07724 whole entry): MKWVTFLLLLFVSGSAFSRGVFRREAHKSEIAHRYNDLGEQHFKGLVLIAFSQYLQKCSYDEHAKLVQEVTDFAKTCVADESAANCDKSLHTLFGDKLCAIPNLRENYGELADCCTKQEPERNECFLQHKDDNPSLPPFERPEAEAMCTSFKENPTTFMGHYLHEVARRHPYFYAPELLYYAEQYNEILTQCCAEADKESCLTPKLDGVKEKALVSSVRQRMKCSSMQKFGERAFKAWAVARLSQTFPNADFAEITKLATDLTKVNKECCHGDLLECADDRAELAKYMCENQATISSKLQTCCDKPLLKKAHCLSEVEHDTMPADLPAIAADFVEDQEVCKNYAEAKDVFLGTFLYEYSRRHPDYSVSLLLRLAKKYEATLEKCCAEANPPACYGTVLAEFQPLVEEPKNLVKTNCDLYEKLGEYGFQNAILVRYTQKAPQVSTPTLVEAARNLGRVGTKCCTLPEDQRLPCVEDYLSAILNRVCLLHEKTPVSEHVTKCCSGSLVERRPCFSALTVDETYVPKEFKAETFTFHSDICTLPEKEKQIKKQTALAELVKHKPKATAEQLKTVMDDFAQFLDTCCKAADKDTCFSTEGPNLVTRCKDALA

Kallikrein-7 [8] = molecular target: Kallikrein-7 (Mus musculus, UniProt Q91VE3); assay: Inhibition of mouse KLK7 assessed as inhibition constant; set-up: species or system CHO
Kallikrein-7 (Mus musculus, UniProt Q91VE3), sequence (Q91VE3 whole entry): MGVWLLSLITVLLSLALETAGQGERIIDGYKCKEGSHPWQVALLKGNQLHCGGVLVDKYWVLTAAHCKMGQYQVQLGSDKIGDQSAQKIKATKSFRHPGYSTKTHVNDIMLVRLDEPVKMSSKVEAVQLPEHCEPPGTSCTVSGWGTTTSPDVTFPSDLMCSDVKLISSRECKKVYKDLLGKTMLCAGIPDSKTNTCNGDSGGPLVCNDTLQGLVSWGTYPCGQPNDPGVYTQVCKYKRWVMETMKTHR

[9] = Half life in C57BL/6J mouse at 6.2 mg/kg, ip by RP-HPLC analysis; format: ADME, organism-based; details: in vivo
[10] = Drug uptake in C57BL/6J mouse skin at 12.4 mg/kg, ip measured after 48 hrs by fluorescence imaging analysis; format: ADME, organism-based, Skin of body; details: in vivo
[11] = Half life in C57BL/6J mouse at 6.2 mg/kg, sc by RP-HPLC analysis; format: ADME, organism-based; details: in vivo
[12] = Drug degradation in C57BL/6J mouse at 6.2 mg/kg, ip measured after 18 to 28 mins by RP-HPLC analysis; format: ADME, organism-based; details: in vivo, time 18-28 min
[13] = Drug degradation in C57BL/6J mouse at 6.2 mg/kg, sc measured after 18 to 28 mins by RP-HPLC analysis; format: ADME, organism-based; details: in vivo, time 18-28 min
[14] = Drug uptake in C57BL/6J mouse skin epidermis at 6.2 mg/kg, iv measured after 8 hrs by fluorescence imaging analysis; format: ADME, organism-based; details: in vivo
[15] = Drug uptake in C57BL/6J mouse skin epidermis assessed as half life at 3.2 mg/kg, iv by fluorescence imaging analysis; format: ADME, organism-based; details: time 8 hrs

CCCCCCCCCCCCCCCC(=O)NCCCC[C@H](NC(=O)[C@H](CCC(=O)O)NC(=O)[C@H](Cc1ccc(O)cc1)NC(=O)[C@H](CCC(=O)O)NC(=O)COCCOCCNC(=O)c1ccc(-c2c3ccc(=O)cc-3oc3cc(O)ccc23)c(C(=O)O)c1)C(=O)N[C@@H](CCC(=O)O)C(=O)N[C@@H](Cc1ccc(O)cc1)C(=O)N[C@@H](CCC(=O)O)C(=O)NCCOCCOCC(=O)NCCCC[C@H](NC(=O)CNC(=O)[C@@H]1CSCC(=O)CSC[C@H](NC(=O)[C@@H]2CCCN2)C(=O)N[C@@H](CC(C)C)C(=O)N[C@@H](Cc2ccc(O)cc2)C(=O)N[C@@H](CCCC)C(=O)N[C@@H](C)C(=O)NCC(=O)N1)C(=O)NCC(N)=O
half-life [1]: > 96 h

CCCCCCCCCCCCCCCC(=O)NCCCC[C@H](NC(=O)[C@H](CCC(=O)O)NC(=O)[C@H](Cc1ccc(O)cc1)NC(=O)[C@H](CCC(=O)O)NC(=O)COCCOCCNC(=O)c1ccc(-c2c3ccc(=O)cc-3oc3cc(O)ccc23)c(C(=O)O)c1)C(=O)N[C@@H](CCC(=O)O)C(=O)N[C@@H](Cc1ccc(O)cc1)C(=O)N[C@@H](CCC(=O)O)C(=O)NCCOCCOCC(=O)N[C@H]1CSCC(=O)CSC[C@@H](C(N)=O)NC(=O)[C@@H]2CCCN2C(=O)[C@H](Cc2ccc(O)cc2)NC(=O)[C@H](CCC(N)=O)NC(=O)[C@H](CCCNC(=N)N)NC(=O)[C@H]([C@@H](C)O)NC1=O
Ki (Kallikrein-5): 23 nM | Kd (Albumin [2]): 118 nM

CCCCCCCCCCCCCCCC(=O)NCCCC[C@H](NC(=O)[C@H](CCC(=O)O)NC(=O)[C@H](Cc1ccc(O)cc1)NC(=O)[C@H](CCC(=O)O)NC(=O)COCCOCCNC(=O)c1ccc(-c2c3ccc(=O)cc-3oc3cc(O)ccc23)c(C(=O)O)c1)C(=O)N[C@@H](CCC(=O)O)C(=O)N[C@@H](Cc1ccc(O)cc1)C(=O)N[C@@H](CCC(=O)O)C(=O)NCCOCCOCC(=O)NCCCC[C@H](NC(=O)CNC(=O)[C@@H]1CSCC(=O)CSC[C@H](NC(=O)[C@@H]2CCCN2)C(=O)N[C@@H](CC(C)C)C(=O)N[C@@H](Cc2ccc(O)cc2)C(=O)N[C@@H](CCCC)C(=O)N[C@@H](C)C(=O)N[C@@H](CCCCNC(=N)N)C(=O)N1)C(=O)NCC(N)=O
half-life [1]: 4 h

CCCCCCCCCCCCCCCC(=O)NCCCC[C@H](NC(=O)[C@H](CCC(=O)O)NC(=O)[C@@H](Cc1ccc(O)cc1)NC(=O)[C@H](CCC(=O)O)NC(=O)COCCOCCNC(=O)c1ccc(-c2c3ccc(=O)cc-3oc3cc(O)ccc23)c(C(=O)O)c1)C(=O)N[C@@H](CCC(=O)O)C(=O)N[C@@H](Cc1ccc(O)cc1)C(=O)N[C@@H](CCC(=O)O)C(=O)NCCOCCOCC(=O)NCCCC[C@H](NC(=O)CNC(=O)[C@@H]1CSCC(=O)CSC[C@H](NC(=O)[C@@H]2CCCN2)C(=O)N[C@@H](CC(C)C)C(=O)N[C@@H](Cc2ccc(O)cc2)C(=O)N[C@@H](CCCC)C(=O)N[C@@H](C)C(=O)N[C@@H](CCCCNC(=N)N)C(=O)N1)C(=O)NCC(N)=O
half-life [1]: > 96 h | concentration at 24 h [3]: 20 µM | Stability [4]: Unstable | half-life [5]: 6.2 h

CCCCCCCCCCCCCCCC(=O)NCCCC[C@H](NC(=O)[C@H](CCC(=O)O)NC(=O)[C@H](Cc1ccc(O)cc1)NC(=O)[C@H](CCC(=O)O)NC(=O)COCCOCCNC(=O)c1ccc(-c2c3ccc(=O)cc-3oc3cc(O)ccc23)c(C(=O)O)c1)C(=O)N[C@@H](CCC(=O)O)C(=O)N[C@@H](Cc1ccc(O)cc1)C(=O)N[C@@H](CCC(=O)O)C(=O)NCCOCCOCC(=O)N1CCC[C@H]1C(=O)N[C@H]1CSCC(=O)CSC[C@@H](C(=O)N[C@@H](CO)C(N)=O)NC(=O)[C@H](CCCNC(=N)N)NC(=O)[C@H](C)NC(=O)[C@H](CC(C)C)NC(=O)[C@H](Cc2ccc(O)cc2)NC(=O)[C@H](CC(C)C)NC1=O
Ki (Kallikrein-7 [6]): 106 nM | Kd (Albumin [2]): 168 nM

CCCCCCCCCCCCCCCC(=O)NCCCC[C@H](NC(=O)[C@H](CCC(=O)O)NC(=O)[C@H](Cc1ccc(O)cc1)NC(=O)[C@H](CCC(=O)O)NC(=O)COCCOCCNC(=O)c1ccc(-c2c3ccc(=O)cc-3oc3cc(O)ccc23)c(C(=O)O)c1)C(=O)N[C@@H](CCC(=O)O)C(=O)N[C@@H](Cc1ccc(O)cc1)C(=O)N[C@@H](CCC(=O)O)C(=O)NCCOCCOCC(=O)NCCCC[C@H](NC(=O)CNC(=O)[C@@H]1CSCC(=O)CSC[C@H](NC(=O)[C@@H]2CCCN2)C(=O)N[C@@H](CC(C)C)C(=O)N[C@@H](Cc2ccc(O)cc2)C(=O)N[C@@H](CCCC)C(=O)N[C@@H](C)C(=O)N[C@@H](CCCNC(N)=O)C(=O)N1)C(=O)NCC(N)=O
half-life [1]: > 96 h

CCCCCCCCCCCCCCCC(=O)NCCCC[C@H](NC(=O)[C@H](CCC(=O)O)NC(=O)[C@H](Cc1ccc(O)cc1)NC(=O)[C@H](CCC(=O)O)NC(=O)COCCOCCNC(=O)c1ccc(-c2c3ccc(=O)cc-3oc3cc(O)ccc23)c(C(=O)O)c1)C(=O)N[C@@H](CCC(=O)O)C(=O)N[C@@H](Cc1ccc(O)cc1)C(=O)N[C@@H](CCC(=O)O)C(=O)NCCOCCOCC(=O)NCCCC[C@H](NC(=O)CNC(=O)[C@@H]1CSCC(=O)CSC[C@H](NC(=O)CN)C(=O)N[C@@H]([C@@H](C)O)C(=O)N[C@@H](CCCNC(=N)N)C(=O)N[C@@H](CCC(N)=O)C(=O)N[C@@H](Cc2ccc(O)cc2)C(=O)N2CCC[C@H]2C(=O)N1)C(=O)NCC(N)=O
Ki (Kallikrein-5): 1.2 nM | half-life [1]: 90 h | Kd (Albumin [2]): 119 nM | Kd (Albumin [7]): 7000 nM | Ki (Kallikrein-7 [8]): 4.1 nM | concentration at 24 h [3]: 20 µM | half-life [9]: 5.1 h | Drug uptake [10]: Active | half-life [11]: 5.8 h | Stability [12]: Unstable | Stability [4]: Unstable | Stability [13]: Unstable | Drug uptake [14]: Active | half-life [5]: 4.4 h

CCCCCCCCCCCCCCCC(=O)NCCCC[C@H](NC(=O)[C@H](CCC(=O)O)NC(=O)[C@H](Cc1ccc(O)cc1)NC(=O)[C@H](CCC(=O)O)NC(=O)COCCOCCNC(=O)c1ccc(-c2c3ccc(=O)cc-3oc3cc(O)ccc23)c(C(=O)O)c1)C(=O)N[C@@H](CCC(=O)O)C(=O)N[C@@H](Cc1ccc(O)cc1)C(=O)N[C@@H](CCC(=O)O)C(=O)NCCOCCOCC(=O)NCCCC[C@H](NC(=O)CNC(=O)[C@@H]1CSCC(=O)CSC[C@H](NC(=O)[C@@H]2CCCN2)C(=O)N[C@@H](CC(C)C)C(=O)N[C@@H](Cc2ccc(O)cc2)C(=O)N[C@@H](CC(C)C)C(=O)N[C@@H](C)C(=O)N[C@@H](CCCNC(=N)N)C(=O)N1)C(=O)NCC(N)=O
Ki (Kallikrein-7 [6]): 31 nM | half-life [1]: 0.4 h | Kd (Albumin [2]): 164 nM

C[C@@H](O)[C@@H]1NC(=O)[C@@H](NC(=O)CN)CSCC(=O)CSC[C@@H](C(=O)O)NC(=O)[C@@H]2CCCN2C(=O)[C@H](Cc2ccc(O)cc2)NC(=O)[C@H](CCC(N)=O)NC(=O)[C@H](CCCNC(=N)N)NC1=O (H-GCTRQYPC-OH; linker 2-8 via CH2COCH2)
Ki (Kallikrein-5): 2.2 nM | half-life [1]: < 0.0833 h | Kd (Albumin [2]): 39 nM

CC(C)C[C@@H]1NC(=O)[C@H](Cc2ccc(O)cc2)NC(=O)[C@H](CC(C)C)NC(=O)[C@@H](NC(=O)[C@@H]2CCCN2)CSCC(=O)CSC[C@@H](C(=O)N[C@@H](CO)C(=O)O)NC(=O)[C@H](CCCNC(=N)N)NC(=O)[C@H](C)NC1=O (H-PCLYLARCS-OH; linker 2-8 via CH2COCH2)
Ki (Kallikrein-7 [6]; cho): 16 nM | half-life [1]: < 0.0833 h | Kd (Albumin [2]): 39 nM

CCCCCCCCCCCCCCCC(=O)NCCCC[C@H](NC(=O)[C@@H](CCO)CC(=O)[C@H](Cc1ccc(O)cc1)NC(=O)[C@H](CCO)NC(=O)COCCOCCNC(=O)c1ccc(-c2c3ccc(=O)cc-3oc3cc(O)ccc23)c(C(=O)O)c1)C(=O)N[C@@H](CCO)C(=O)N[C@@H](Cc1ccc(O)cc1)C(=O)N[C@@H](CCC(=O)O)C(=O)NCCOCCOCC(=O)NCCCC[C@H](NC(=O)CNC(=O)[C@@H]1CSCC(=O)CSC[C@H](NC(=O)CNC(C)=O)C(=O)N[C@@H]([C@@H](C)O)C(=O)N[C@@H](CCCNC(=N)N)C(=O)N[C@@H](CCC(N)=O)C(=O)N[C@@H](Cc2ccc(O)cc2)C(=O)N2CCC[C@H]2C(=O)N1)C(=O)NCC(N)=O (I: Ac-GCTRQYPCGKG-NH2 / II: {X1-AEEA}-[hSer][X3]K(Palmitoyl)[hSer]YE[AEEA]; linker I:2-I:8 via CH2COCH2; amide I:10-II:C)
half-life [15]: 0.64 h
